Read-outs that look alike come from different tables or passages of the source.
What was measured:
[1] = system: NF-AT (FGL-5 cells); test: NF-AT Inhibition Assay Directed β-Galactosidase Expression; type: cell-based
Procedure: Inhibition of NF-AT activity is measured using FGL-5 cells. FGL-5 is a cloned line of stably transfected Jurkat T-cells that contain a construct in which three tandem copies of the NF-AT DNA binding site direct transcription of the lacZ gene, encoding β-galactosidase (Fiering et al., 1990, Genes & Development 4:1823). When these cells are stimulated with phorbol esters which activate protein kinase C and calcium ionophore to raise the intracellular calcium concentration, transcriptionally active NF-AT is produced. In T-cells, this normally leads to the expression of IL-2, T-cell growth factor. However, in FGL-5 cells NF-AT activation leads to the production of β-galactosidase which can be detected using an appropriate substrate.
This assay was performed essentially as described (Bierer et al., 1990, Proc. Natl. Acad. Sci. 87:923 1). FGL-5 cells were maintained in medium consisting of RPMI-1640 with 10% FBS, 2 mM L-glutamine, 1% Penicillin-Streptomycin and 15 mM HEPES buffer. The assays were done with exponentially growing cells whose density was not greater than 0.5 million cells/ml. The cells were resuspended to 3 million cells/ml in medium and 0.1 ml was added to wells of a 96-well plate.
The compounds of the present invention were dissolved in either ethanol or dimethylsulfoxide at 10 mM and 0.05 ml/well of various dilutions in medium were added to cells in duplicate wells. Treatment controls consisted of duplicate wells to which 0.05 ml/well of either medium, ethanol or dimethylsulfoxide was added. The ethanol and dimethyl sulfoxide were at the same concentration as was used for the compounds. Cells were incubated with compounds at room temperature for 10-15 minutes. Phorbol dibutyrate (Sigma) and Ionomycin (Calbiochem) were dissolved at 50 μg/ml and 2 mM, respectively and stored at -70° C.
FGL-5 cells were stimulated by diluting these reagents with medium to 200 ng/ml and 8 μM, respectively and adding of 0.05 ml/well. For unstimulated cell controls, 0.05 ml/well of medium was added to duplicate wells. The plates were incubated overnight (16-18 hours) at 37° C. in a humidified atmosphere of 5% CO2 and air.
β-galactosidase activity was measured as the fluorescence generated by the cleavage of 4-methyl umbelliferyl-β-D-galactoside (Sigma) at the β-galactoside bond. After overnight incubation, the cells were centrifuged at 500×g for 3 minutes in the 96-well plates and washed 3 times with PBS. The cells were then resuspended in 0.18 ml/well of reaction medium containing 100 mM sodium phosphate buffer, pH 7.0, 10 mM potassium chloride, 1 mM magnesium sulfate, 0.1% Triton X-100 (Pierce, Rockford, Ill.), and 0.5 mM 4-methylumbelliferyl-β-D-galactoside.
The fluorescence at 460 nm using 3 55 nm excitation was measured at intervals over 1-2 hours (during which fluorescence increased linearly with time) with a LS50 Luminescence Spectrometer (Perkin Elmer).
The percent inhibition by each concentration of the compounds was calculated as: [formula]
The values of the concentration of compounds required for 50% inhibition (IC50) were determined by linear regression analysis of the percent inhibition at various compound concentrations.

[2] = system: Lewis rats; test: Adjuvant Arthritis Model in the Rat; type: in vivo; details: for % Inhibition: inhibition of swelling in uninjected limb vs vehicle control, 10 mg/kg/dose i.p.; for ΔAnkle Diameter: uninjected hind paw, day 0 to day 16, 10 mg/kg/dose i.p. on days -1, 0, 2, 5, 7, 9, 12 and 14
Procedure: Complete Freund's adjuvant is made by supplementing extra heavy mineral oil with 10 mg/ml heat killed Mycobacterium butyricum (Difco Laboratories, Detroit, Mich.). Lewis rats (Charles Rivers, Willmington, Mass.) are given a 0.1 ml injection of adjuvant (1 mg/animal mycobacterium) subcutaneously into the right hind footpad. In the injected foot, an acute inflammatory reaction occurs which is characterized by erythema, edema and a predominantly neutrophilic cell infiltrate. This is followed by edema in the uninjected contralateral foot by days 10-12. This secondary response is accompanied by a predominantly mononuclear cell infiltrate, indicating the presence of cell-mediated immunity.
The immune response is quantitated by measuring the change in ankle diameter of the uninjected hind paw from day 0 to day 16 post sensitization. This is accomplished using a hand-held dial micrometer. Animals are administered test drugs, suspended in a vehicle consisting of 5% polyethylene glycol and 0.5% Tween-80 (Sigma Chemical Co., St. Louis, Mo.) in phosphate buffered saline (GIBCO, Grand Island, N.Y.), i.p. on days -1, 0, 2, 5, 7, 9, 12 and 14. Several compounds when administered at 10 mg/kg/dose inhibited the swelling in the uninjected limb compared with the control groups that were sensitized with Complete Freund's Adjuvant but received only the vehicle i.p. (Table 4).

[3] = inhibition of β-galactosidase activity in FGL-5 cells stimulated with phorbol dibutyrate and ionomycin, read-out: IC50
[4] = stimulated FGL-5 cells, read-out: IC50 for NF-AT directed β-galactosidase expression

Row | Compound | IC50 [1, 3] | % Inhibition [2] | ΔAnkle Diameter [2] | IC50 [1, 4]
1 | CCC(C)[C@@H](CN1CCC[C@H]1C(=O)N[C@H](C(=O)NCc1ccccc1)[C@@H](C)CC)NC(=O)[C@H](CC1CCCCC1)NC(=O)OC(C)(C)C (stereo partly drawn) [Example 7, 1-[1-[2-(S)-[[2-(S)-[[(1,1-Dimethylethoxy)carbonyl]amino]-1-oxo-3-cyclohexylpropyl]amino]-3-methylpentyl]-L-proline]-L-isoleucine Benzylamide] | > 15 µM |  |  | 
2 | CC[C@H](C)[C@H](NC(=O)[C@@H]1CCCCN1C[C@H](CC(C)C)NC(=O)OC(C)(C)C)C(=O)NCc1ccccc1 [Example 18, 1-[1-[2-(S)-[[(1,1-Dimethylethoxy)carbonyl]amino]-4-methylpentyl]-L-homoproline]-L-isoleucine Benzylamide] | > 15 µM |  |  | 
3 | CC[C@H](C)[C@H](NC(=O)[C@@H]1CCCN1C[C@@H](NC(=O)OC(C)(C)C)[C@@H](C)CC)C(=O)NCc1ccccc1 [Example 6] | 8 µM | 4% | 3.2 ± 0.3 mm | 
4 | CC[C@H](C)[C@H](NC(=O)[C@@H]1CCCN1C[C@@H](NC(=O)OC(C)(C)C)C(C)C)C(=O)NCc1ccccc1 [Example 17, 1-[1-[2-(S)-[[(1,1-dimethylethoxy)carbonyl]amino]-3-methylbutyl]-L-proline] -L-isoleucine Benzylamide] | 29 µM |  |  | ≤ 10 µM
5 | CCC(C)[C@@H](CN1CCC[C@H]1C(=O)N[C@H](C(=O)NCc1ccccc1)[C@@H](C)CC)NC(=O)[C@@H](N)CC1CCCCC1 (some centres unmarked) [Example 8] | > 15 µM |  |  | 
6 | CC[C@H](C)[C@H](NC(=O)[C@@H]1CCCCN1C[C@@H](NC(=O)OC(C)(C)C)[C@@H](C)CC)C(=O)NCc1ccccc1 [Example 3, 1-[1-[2-(S)-[[(1,1-Dimethylethoxy)carbonyl]amino]-3-(S)-methylpentyl]-L-homoproline]-L-isoleucine Benzylamide] | 1 µM | 30% | 2.6 ± 0.4 mm | 
7 | CC[C@H](C)[C@H](NC(=O)[C@@H]1CCCN1C[C@H](CC(C)C)NC(=O)[C@H](CC(N)=O)NC(=O)[C@H](Cc1ccccc1)NC(=O)OC(C)(C)C)C(=O)OCc1ccccc1 [Example 14, 1-[1-[2-(S)-[[1-[1-[(1,1-Dimethylethoxy)carbonyl]-L-phenylalanyl]-L-asparaginyl]amino]-4-methylpentyl]-L-proline]-L-isoleucine Phenylmethyl Ester] |  |  |  | ≤ 10 µM
8 | CC[C@H](C)[C@H](NC(=O)[C@@H]1CCCN1C[C@H](CC1CCCCC1)NC(=O)OC(C)(C)C)C(=O)NCc1ccccc1 [Example 16, 1-[1-[2-(S)-[[(1,1-dimethylethoxy)carbonyl]amino]-3-cyclohexylpropyl]-L-proline]-L-isoleucine Benzylamide] | 19 µM |  |  | 
9 | CC[C@H](C)[C@H](NC(=O)[C@@H]1CCCN1C[C@H](CC(C)C)NC(=O)OC(C)(C)C)C(=O)NCc1ccccc1 [Example 2, 1-[1-[2-(S)-[[(1,1-Dimethylethoxy)carbonyl]amino]-4-methylpentyl]-L-proline]-L-isoleucine Benzylamide] | 13 µM |  |  | 
10 | CC[C@H](C)[C@@H](CN1CCCC[C@H]1C(=O)N[C@H](C(=O)NCc1ccccc1)[C@@H](C)OCc1ccccc1)NC(=O)OC(C)(C)C [Example 19, 1-[1-[2-(S)-[[(1,1-Dimethylethoxy)carbonyl]amino]-3-(S)-methylpentyl]-L-homoproline]-L-threonene(O-Benzyl Ether)Benzylamide] | 9 µM | 43% | 2.1 ± 0.6 mm | 
